Key:
[1] = test system: hind paw mechanical allodynia (BTZ-induced CIPN); experiment: CIPN-reversal study: Dynamic Aesthesiometer Test, mechanical threshold; assay type: in vivo, Wistar rat
Protocol: (§1) Wistar female rats (n=52) (Envigo, Correzzano, Italy) at 10-11 weeks of age were utilized. The study was divided into 2 phases of 4 weeks each. […] Body weight was measured periodically during phase 1 from baseline (day 1) to day 28. At baseline and conclusion of phase 1 (day 28), nerve conduction velocity (NCV) was performed on caudal and sciatic nerves and Dynamic Aesthesiometer Test (DAT) measured mechanical threshold (MT) of the hind paw. […] Body weight was measured periodically from baseline (day 28) to day 56 (termination). NCV and MT were measured in all 4 groups at baseline and on day 35 and 56. […] At termination, sciatic nerves were obtained for β-tubulin polymerization and skin samples were procured for intraepidermal nerve fiber (IENF) density and histopathology.
MT was assessed with the DAT device (Model 37450, Ugo Basile Biological Instruments, Comerio, Italy). After acclimation, a servo-controlled pointed metallic filament (0.5 mm diameter) was placed on plantar surface of the hind paw and exerted a progressive punctate pressure up to 50 grams within 20 seconds. The pressure elicited a voluntary hind paw withdrawal response that was recorded and represented MT index. MT was collected alternatively on each side every 2 minutes on 3 occasions to yield a mean value. Mean MT values represented maximum pressure (grams) tolerated by each rat. Exposure of each animal to mechanical stimulus was limited to 30 seconds.

[2] = test system: caudal nerves (BTZ-induced CIPN); experiment: CIPN-reversal study: caudal nerve conduction velocity; assay type: in vivo, Wistar rat
Protocol: as §1
NCV (meters/second) was obtained from caudal and sciatic nerves with an electromyography tool (Myto 2, ABN Neuro, Firenze, Italy). Caudal NCV was measured by placement of recording needle electrodes distally in the tail with stimulating needle electrodes 5 cm and 10 cm proximal to recording point. Peak latencies of potentials recorded at the 2 sites after nerve stimulation were determined and NCV was calculated. Sciatic NCV was determined by placement of needle recording electrodes near ankle bone and stimulating electrodes close to thigh. Peak latencies were recorded similar to caudal nerve and NCV was calculated. NCV was performed under standard conditions in a temperature-controlled facility (22±2° C.) and rats were under isoflurane anesthesia with monitoring of vital signs.

[3] = BTZ vs BTZ+ CX-8998 3 mg/kg, P > 0.05 ns
[4] = BTZ vs BTZ+ CX-8998 10 mg/kg, P > 0.05 ns
[5] = BTZ vs BTZ+ CX-8998 30 mg/kg, P > 0.05 ns
[6] = BTZ+ CX-8998 3 mg/kg vs BTZ+ CX-8998 10 mg/kg, P > 0.05 ns
[7] = BTZ+ CX-8998 3 mg/kg vs BTZ+ CX-8998 30 mg/kg, P > 0.05 ns
[8] = BTZ+ CX-8998 10 mg/kg vs BTZ+ CX-8998 30 mg/kg, P > 0.05 ns
[9] = CTRL vs BTZ+ CX-8998 3 mg/kg, P > 0.05 ns
[10] = CTRL vs BTZ+ CX-8998 10 mg/kg, P < 0.05 *
[11] = CTRL vs BTZ+ CX-8998 30 mg/kg, P > 0.05 ns
[12] = CTRL vs BTZ+ CX-8998 10 mg/kg, P > 0.05 ns

CC(C)c1ccc(CC(=O)N[C@H](C)c2ccc(OCC(F)(F)F)cn2)cc1 [CX-8998, (R)-2-(4-Isopropylphenyl)-N-(1-(5-(2,2,2-Trifluoroethoxy)pyridin-2-yl)ethyl)acetamide]
DYNAMIC TEST 8 WEEKS, Difference in rank sum (Dunn's Multiple Comparison Test) [1, 3]: −15.63
DYNAMIC TEST 5 WEEKS, Difference in rank sum (Dunn's Multiple Comparison Test) [1, 4]: −0.7411
DYNAMIC TEST 8 WEEKS, Difference in rank sum (Dunn's Multiple Comparison Test) [1, 4]: −6.500
DYNAMIC TEST 5 WEEKS, Difference in rank sum (Dunn's Multiple Comparison Test) [1, 5]: −6.679
DYNAMIC TEST 8 WEEKS, Difference in rank sum (Dunn's Multiple Comparison Test) [1, 5]: −9.688
DYNAMIC TEST 8 WEEKS, Difference in rank sum (Dunn's Multiple Comparison Test) [1, 6]: 9.125
DYNAMIC TEST 5 WEEKS, Difference in rank sum (Dunn's Multiple Comparison Test) [1, 7]: 7.313
DYNAMIC TEST 8 WEEKS, Difference in rank sum (Dunn's Multiple Comparison Test) [1, 7]: 5.938
DYNAMIC TEST 5 WEEKS, Difference in rank sum (Dunn's Multiple Comparison Test) [1, 8]: −5.938
DYNAMIC TEST 8 WEEKS, Difference in rank sum (Dunn's Multiple Comparison Test) [1, 8]: −3.188
DYNAMIC TEST 5 WEEKS, Difference in rank sum (Dunn's Multiple Comparison Test) [1, 9]: 3.250
DYNAMIC TEST 8 WEEKS, Difference in rank sum (Dunn's Multiple Comparison Test) [1, 9]: 7.563
DYNAMIC TEST 5 WEEKS, Difference in rank sum (Dunn's Multiple Comparison Test) [1, 10]: 16.50
DYNAMIC TEST 8 WEEKS, Difference in rank sum (Dunn's Multiple Comparison Test) [1, 10]: 16.69
DYNAMIC TEST 5 WEEKS, Difference in rank sum (Dunn's Multiple Comparison Test) [1, 11]: 10.56
DYNAMIC TEST 8 WEEKS, Difference in rank sum (Dunn's Multiple Comparison Test) [1, 11]: 13.50
NCV OF CAUDAL NERVE (5 weeks), Difference in rank sum (Dunn's Multiple Comparison Test) [2, 3]: −11.21
NCV OF CAUDAL NERVE (8 weeks), Difference in rank sum (Dunn's Multiple Comparison Test) [2, 3]: −11.55
NCV OF CAUDAL NERVE (8 weeks), Difference in rank sum (Dunn's Multiple Comparison Test) ([2]; BTZ vs BTZ+ CX-8998 10 mg/kg, P < 0.01 **): −22.36
NCV OF CAUDAL NERVE (5 weeks), Difference in rank sum (Dunn's Multiple Comparison Test) [2, 4]: −4.625
NCV OF CAUDAL NERVE (8 weeks), Difference in rank sum (Dunn's Multiple Comparison Test) ([2]; BTZ vs BTZ+ CX-8998 30 mg/kg, P < 0.001 ***): −30.42
NCV OF CAUDAL NERVE (5 weeks), Difference in rank sum (Dunn's Multiple Comparison Test) [2, 5]: −11.04
NCV OF CAUDAL NERVE (5 weeks), Difference in rank sum (Dunn's Multiple Comparison Test) [2, 6]: 6.583
NCV OF CAUDAL NERVE (8 weeks), Difference in rank sum (Dunn's Multiple Comparison Test) [2, 6]: −10.82
NCV OF CAUDAL NERVE (8 weeks), Difference in rank sum (Dunn's Multiple Comparison Test) ([2]; BTZ+ CX-8998 3 mg/kg vs BTZ+ CX-8998 30 mg/kg, P < 0.05 *): −18.87
NCV OF CAUDAL NERVE (5 weeks), Difference in rank sum (Dunn's Multiple Comparison Test) [2, 7]: 0.1667
NCV OF CAUDAL NERVE (5 weeks), Difference in rank sum (Dunn's Multiple Comparison Test) [2, 8]: −6.417
NCV OF CAUDAL NERVE (8 weeks), Difference in rank sum (Dunn's Multiple Comparison Test) [2, 8]: −8.053
NCV OF CAUDAL NERVE (8 weeks), Difference in rank sum (Dunn's Multiple Comparison Test) ([2]; CTRL vs BTZ+ CX-8998 3 mg/kg, P < 0.01 **): 25.45
NCV OF CAUDAL NERVE (5 weeks), Difference in rank sum (Dunn's Multiple Comparison Test) [2, 9]: 4.542
NCV OF CAUDAL NERVE (5 weeks), Difference in rank sum (Dunn's Multiple Comparison Test) [2, 12]: 11.13
NCV OF CAUDAL NERVE (8 weeks), Difference in rank sum (Dunn's Multiple Comparison Test) [2, 12]: 14.64
NCV OF CAUDAL NERVE (5 weeks), Difference in rank sum (Dunn's Multiple Comparison Test) [2, 11]: 4.708
NCV OF CAUDAL NERVE (8 weeks), Difference in rank sum (Dunn's Multiple Comparison Test) [2, 11]: 6.583

Reference: patent US20220354834A1, “METHODS AND MATERIALS FOR TREATING NEUROTOXICITY” (Cavion, Inc., priority 2019, published 2022)
